# In patent US7947707B2, “Nitrogenated heterocyclic compound and pharmaceutical composition comprising the same” (Kissei Pharmaceutical Co., Ltd., priority 2005, dated 2011):
# Key:
# [1] = molecular target: T1, xanthine oxidase (from buttermilk) (Bos taurus, UniProt P80457); test: Xanthine oxidase inhibitory effect; assay type: biochemical; settings: 100 μmol/L xanthine, 5 mU/mL enzyme; read-out: X.O. inhibition IC50
# T1 construct: xanthine oxidase (from buttermilk; biozyme laboratories); purchased biozyme laboratories; host or cells: buttermilk (natural source)
# T1 sequence (P80457 whole entry): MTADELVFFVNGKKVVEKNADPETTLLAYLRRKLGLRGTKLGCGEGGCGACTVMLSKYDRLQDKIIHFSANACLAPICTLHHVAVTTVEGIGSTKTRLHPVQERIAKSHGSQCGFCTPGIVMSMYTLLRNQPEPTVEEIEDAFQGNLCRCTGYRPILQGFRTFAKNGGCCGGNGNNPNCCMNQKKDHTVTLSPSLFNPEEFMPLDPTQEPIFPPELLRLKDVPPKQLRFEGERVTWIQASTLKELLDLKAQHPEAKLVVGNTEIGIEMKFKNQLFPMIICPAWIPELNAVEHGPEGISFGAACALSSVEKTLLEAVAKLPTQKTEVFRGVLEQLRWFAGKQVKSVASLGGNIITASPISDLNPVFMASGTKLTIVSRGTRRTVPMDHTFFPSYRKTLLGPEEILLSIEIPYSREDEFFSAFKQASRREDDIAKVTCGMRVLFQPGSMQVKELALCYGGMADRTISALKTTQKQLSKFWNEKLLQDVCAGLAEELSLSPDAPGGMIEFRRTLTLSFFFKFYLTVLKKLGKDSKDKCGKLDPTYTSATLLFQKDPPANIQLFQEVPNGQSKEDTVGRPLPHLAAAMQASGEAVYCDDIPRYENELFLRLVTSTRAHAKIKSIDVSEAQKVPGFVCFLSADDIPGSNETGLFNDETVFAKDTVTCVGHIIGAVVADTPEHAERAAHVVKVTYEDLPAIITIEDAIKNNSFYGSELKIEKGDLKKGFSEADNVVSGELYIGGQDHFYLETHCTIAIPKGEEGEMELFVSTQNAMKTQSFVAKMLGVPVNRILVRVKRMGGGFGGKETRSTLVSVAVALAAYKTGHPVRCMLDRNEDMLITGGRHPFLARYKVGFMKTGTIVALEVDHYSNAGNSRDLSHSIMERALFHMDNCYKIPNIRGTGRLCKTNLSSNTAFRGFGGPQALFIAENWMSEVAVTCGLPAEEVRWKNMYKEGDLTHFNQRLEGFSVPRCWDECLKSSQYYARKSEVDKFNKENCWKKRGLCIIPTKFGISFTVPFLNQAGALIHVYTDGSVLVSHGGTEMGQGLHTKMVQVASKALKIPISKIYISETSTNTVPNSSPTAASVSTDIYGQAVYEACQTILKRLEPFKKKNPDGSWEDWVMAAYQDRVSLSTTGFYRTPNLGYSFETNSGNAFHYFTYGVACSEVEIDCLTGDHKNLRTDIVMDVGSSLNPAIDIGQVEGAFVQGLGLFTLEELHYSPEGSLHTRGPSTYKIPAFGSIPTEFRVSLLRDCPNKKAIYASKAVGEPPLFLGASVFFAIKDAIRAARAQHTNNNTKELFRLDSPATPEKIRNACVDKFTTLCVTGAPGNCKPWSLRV
# Procedure: Assay for inhibition of xanthine oxidase was performed in 100 μmol/L substrate concentration (final concentration), 5 mU/mL enzyme concentration (final concentration) and compounds of the present invention as test compounds which were prepared with xanthine oxidase (from buttermilk; biozyme laboratories), xanthine (Sigma) and phosphate-buffered saline (PBS). In addition, all test compounds were frozen for preservation in condition of 20 mmol/L DMSO solution and used for experiments after thawing at need. Method is following: after diluted solution of test compound was added to 90 μL of 11.1 mU/mL enzyme solution, the mixture was incubated for 10 minutes after mixing. To start reaction, 100 μL of 200 μmol/L substrate solution was added to there, 10 minutes later, the reaction was stopped by addition of 500 μL of 0.5 mol/L sulfuric acid, and then absorbance at […] was measured. Final concentration of test compound was a single concentration, 10 μmol/L in single well for initial screening and 6 concentrations, 10, 1 μmol/L, 100, 10, 1 nmol/L, 100 pmol/L in duplicate for assay to calculate 50% inhibitory concentration (IC50) which were used for assay. Percent inhibition was calculated according to the formula described below. Percent inhibition (%)=(A−B)/(A−C)×100
# In formula, A means absorbance in wells without test compound, B means absorbance in wells with test compound, C means absorbance in blank wells.
# IC50 value was calculated from percent inhibition in each concentration by nonlinear regression method.
# [2] = test system: potassium oxonate induced hyperuricemia; test: Blood hypouricemic effect, potassium oxonate induced hyperuricemia; assay type: in vivo; settings: Rattus norvegicus, po; 10 mg/kg orally; male SD rats; serum 2 hours after administration; read-out: Decrease (%) in UA concentration
# Procedure: Effect of compound of the present invention as a test compound was studied on potassium oxonate induced hyperuricemia with male 7-week-old SD rats (Charles River Japan) and potassium oxonate (Aldrich) suspended in 1% gum arabic solution. Test compound was suspended in 0.5% CMC-Na solution, and then administered orally. Dosing was 10 mg/kg or 50 mg/kg. All volume of administered solution was 10 mL/kg. Potassium oxonate 250 mg/kg was administered to dorsal region of rats subcutaneously, 1 hour later each test compound was administered orally. For control group, only 0.5% CMC-Na solution as a vehicle was administrated. At 2 hours after administration of test compounds or vehicle, blood was collected under ether anesthesia, and serum was separated according to general method. Treated number was 5 for each group.
# Measurement of concentration of uric acid was conducted with following prepared reagents. The deproteinization reagent was prepared in the following manner; 100 g of sodium tungstate was added to a 2 L flask, and exactly 75 mL of 85% phosphoric acid and 500 mL of water were added to the flask equipped with a reflux condenser, and heated for an hour. After cooling, the resulting faint yellow-green solution was diluted to 1 L exactly. Sodium carbonate-urea reagent was prepared in the following manner; 14 g of anhydrous sodium carbonate and 14 g of urea were dissolved in water and final volume of the solution was adjusted to 100 mL exactly. Phosphotungstic coloring reagent was prepared in 4-fold dilution of deproteinzation reagent described above with water. UA standard solution (10 mg/dL: Kyokuto pharmaceutical industrial CO., LTD) was used as an uric acid standard solution, and then serially diluted uric acid standard solution with purified water was also used for standard curve.
# Three hundred μL of serum or standard was added to 2.1 mL of purified water, and then 150 μL of deproteination reagent was also added to the solution, followed by mixing. After incubating for 20 minutes, the mixture was centrifuged at 3000 rpm for 10 minutes. Sodium carbonate-urea reagent (0.5 mL) was added to 1.5 mL of supernatant, and the mixture was incubated for 20 minutes. Next, after addition of 250 μL of coloring reagent, further incubation was carried over 15 minutes. Absorbance at 660 nm was measured, and concentration of uric acid was calculated with standard curve. Percent decrease in concentration of uric acid was calculated by following formula. Percent decrease in concentration of uric acid (%)=(A−B)/A×100
# In formula, A means average of concentration of blood uric acid in control group, B means average of concentration of blood uric acid in test compounds-treated group.
# [3] = molecular target: T2, HEK293 cells forced to express URAT1 (Homo sapiens, UniProt Q96S37); test: URAT1 inhibitory effect, [8-14C] uric acid uptake; assay type: cell-based; settings: test compound 100 μmol/L, 20 μmol/L uric acid, 5 minutes uptake
# T2 construct: host or cells: HEK293
# T2 sequence (Q96S37 1-553): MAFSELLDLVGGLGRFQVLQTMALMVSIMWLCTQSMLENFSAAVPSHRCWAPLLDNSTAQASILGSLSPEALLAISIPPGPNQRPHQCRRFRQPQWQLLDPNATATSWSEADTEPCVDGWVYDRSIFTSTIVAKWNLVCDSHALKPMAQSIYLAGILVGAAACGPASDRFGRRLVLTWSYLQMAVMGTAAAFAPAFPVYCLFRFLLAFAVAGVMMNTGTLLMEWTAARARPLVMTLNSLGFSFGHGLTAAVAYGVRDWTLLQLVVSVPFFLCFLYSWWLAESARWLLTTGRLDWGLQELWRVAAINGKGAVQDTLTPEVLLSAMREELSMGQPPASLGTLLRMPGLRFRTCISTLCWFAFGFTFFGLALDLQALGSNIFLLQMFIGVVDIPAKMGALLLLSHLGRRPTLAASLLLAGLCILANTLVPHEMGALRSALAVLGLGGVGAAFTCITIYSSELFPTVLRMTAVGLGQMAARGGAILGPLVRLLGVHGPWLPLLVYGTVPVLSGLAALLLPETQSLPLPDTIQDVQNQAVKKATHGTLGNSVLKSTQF
# From the text: DMEM containing 10% FBS (supplemented with 0.05% geneticin, Nissui Pharmaceutical Co., Ltd.), HEK293 cells forced to express URAT1 (HCS (Human cell Systems), (Fuji Biomedix)), HBSS as washing buffer and HBSS substituted with Na-gluconate (NaCl in HBSS was substituted with Na-gluconate) were used for assay. [8-^14C] uric acid (moravek) was used as an uric acid reagent and added to assay buffer at 20 μmol/L as a final concentration. Compounds of the present invention were used as a test compound, 20 mmol/L stock solution of each test compound (DMSO solution) was diluted appropriately, and then the diluted test compound solution was added to assay buffer at 100 μmol/L as a final concentration including 0.5% final concentration of DMSO.
# To prepare assay plates, at first, cells on subculture petri dish were peeled off using treatment of 0.05% trypsin-EDTA solution, and then seeded on Biocoat Poly-D-Lysine Cellware 24 well plate (BECTON DICKINSON) at a density of 2×10^5 cells/well and cultured for 2 days.
# For the uptake study, at first, culture medium was removed by aspiration and cells were washed twice with HBSS (37° C.), then the buffer was replaced with 1 mL of assay buffer (37° C.). Cells were pre-incubated for 10 minutes. And then, the buffer was removed by aspiration and 0.5 mL of radioisotope ligand solution incubated at 37° C. was added, then cells were incubated for 5 minutes. After uptake, radioisotope solution was removed by aspiration, and immediately cells were washed three times with ice-cold HBSS, followed by resolving by addition of 0.5 mL of 0.5 mol/L NaOH. Cell lysate solution was transferred to a vial or 24 well plate for Betaplate, and mixed with 0.5 mL of liquid scintillator (Optiphase ‘Super Mix’; Perkin Elmer). Radioisotope activity was measured (using Betaplate 1450). As mean count in control solution not including test compound was 100%, percent inhibition was calculated by determining percent decrease in mean count in solution including test compound from mean count in control solution.
IC50 [1],inhibition at 100 µM [3],Structure (SMILES),inhibition in vivo at 10 mg/kg [2]
3.59 nM,–,Cc1ccccc1-c1cn(-c2ccc(C(=O)O)cc2)cc1C#N [XO-B395-1],79.1%
5 nM,–,Cn1cccc1-c1cn(-c2ccc(C(=O)O)cc2)cc1C#N [XO-B410],59.1%
5.71 nM,–,N#Cc1cn(-c2ccc(C(=O)O)cc2)cc1-c1ccc(Cl)cc1 [XO-B421],57.8%
5.09 nM,–,N#Cc1cn(-c2ccc(C(=O)O)cc2)cc1-c1ccc(C(F)(F)F)cc1 [XO-B428],68.3%
31.6 nM,79.3%,N#Cc1cn(-c2ccc(-c3nnn[nH]3)cc2)c2ccccc12 [XO-CH150],–
57.1 nM,92.5%,N#Cc1cn(-c2ccc(C(=O)O)cc2)c2ccc(F)cc12 [XO-CH168],–
–,98.1%,N#Cc1cn(-c2ccc(C(=O)O)cc2)c2cc(C(F)(F)F)ccc12 [XO-CH206],–
–,92.3%,N#Cc1cn(-c2ccc(C(=O)O)cc2)c2ncccc12 [XO-KT10],–
–,95.2%,N#Cc1cn(-c2ccc(C(=O)O)cc2)c2nc(Cl)ccc12 [XO-KT18],–
–,79.9%,N#Cc1nn(-c2ccc(C(=O)O)cc2)c2ccccc12 [XO-KT30],–
4.86 nM,–,Cc1ccc(-c2nn(-c3ccc(C(=O)O)cc3)cc2C#N)cc1 [XO-TT537],–
5.21 nM,–,Cc1ccsc1-c1nn(-c2ccc(C(=O)O)cc2)cc1C#N [XO-TT545],75.8%
5.59 nM,–,COc1cccc(-c2nn(-c3ccc(C(=O)O)cc3)cc2C#N)c1 [XO-TT552],–
5.44 nM,–,Cc1ccc(-c2nn(-c3ccc(C(=O)O)cc3)cc2C#N)s1 [XO-TT554],60.5%
8.47 nM,–,N#Cc1cn(-c2ccc(C(=O)O)cc2)nc1-c1ccccc1C(F)(F)F [XO-TT561],–
4 nM,–,Cc1ccccc1-c1nn(-c2ccc(C(=O)O)cc2)cc1C#N [XO-TT573],66.3%
5.52 nM,–,COc1ccccc1-c1nn(-c2ccc(C(=O)O)cc2)cc1C#N [XO-TT574],–

# Second part, the molecule before the results:
Structure (SMILES),IC50 [1],inhibition at 100 µM [3],inhibition in vivo at 10 mg/kg [2]
N#Cc1cn(-c2ccc(C(=O)O)cc2)cc1-c1ccccc1 [XO-B327],4.9 nM,–,74.1%
N#Cc1nn(-c2ccc(C(=O)O)cc2)nc1-c1ccccc1 [XO-B366],77.7 nM,–,–
N#Cc1cn(-c2ccc(C(=O)O)cc2)cc1-c1ccccc1Cl [XO-B397],5.24 nM,–,76.7%
Cc1ccc(-c2cn(-c3ccc(C(=O)O)cc3)cc2C#N)s1 [XO-B399-2],5.56 nM,–,69.4%
COc1ccccc1-c1cn(-c2ccc(C(=O)O)cc2)cc1C#N [XO-B403],5.98 nM,–,62.1%
N#Cc1cn(-c2ccc(C(=O)O)cc2)cc1-c1ccccc1C(F)(F)F [XO-B412],6.38 nM,50.5%,–
N#Cc1cn(-c2ccc(C(=O)O)cc2)cc1-c1ccc(Cl)s1 [XO-B414],5.86 nM,–,67.1%
N#Cc1cn(-c2ccc(C(=O)O)cc2)cc1-c1nccs1 [XO-B420],6.33 nM,–,–
COc1ccc(-c2cn(-c3ccc(C(=O)O)cc3)cc2C#N)cc1 [XO-B422],3.56 nM,–,79%
Cc1ccc(-c2cn(-c3ccc(C(=O)O)cc3)cc2C#N)cc1 [XO-B423],4.26 nM,–,66.6%
N#Cc1cn(-c2ccc(C(=O)O)cc2)cc1-c1ccccc1F [XO-B436],3.71 nM,–,77.3%
N#Cc1cn(-c2ccc(C(=O)O)cc2)cc1-c1ccc(F)cc1 [XO-B438],5.03 nM,–,69.3%
Cc1c(-c2ccccc2)c(C#N)cn1-c1ccc(C(=O)O)cc1 [XO-B440],15.2 nM,–,57.6%
N#Cc1cn(-c2ccc(C(=O)O)cc2)c2ccccc12 [XO-CH146],50.5 nM,92.1%,–
N#Cc1cn(-c2ccc(C(=O)O)cc2)c2ccc(Cl)cc12 [XO-CH160],26.7 nM,93.8%,–
Cc1c(C#N)c2ccccc2n1-c1ccc(C(=O)O)cc1 [XO-CH172],–,88.3%,–
Cc1cccc2c(C#N)cn(-c3ccc(C(=O)O)cc3)c12 [XO-CH205],–,95.7%,–
N#Cc1cnc2c(c1)c(C#N)cn2-c1ccc(C(=O)O)cc1 [XO-KT20],–,64.6%,–
N#Cc1cn(-c2ccc(C(=O)O)cc2)nc1-c1ccccc1 [XO-TT469],8.18 nM,–,75%
N#Cc1cn(-c2ccc(-c3nnn[nH]3)cc2)nc1-c1ccccc1 [XO-TT473],16 nM,–,–
N#Cc1cn(-c2ccc(C(=O)O)cc2)nc1-c1ccccc1Cl [XO-TT524],5.18 nM,–,68.7%
COc1ccc(-c2nn(-c3ccc(C(=O)O)cc3)cc2C#N)cc1 [XO-TT544],3.77 nM,–,71.1%
N#Cc1cn(-c2ccc(C(=O)O)cc2)nc1-c1ccccc1F [XO-TT559],2.91 nM,–,75.9%
N#Cc1cn(-c2ccc(C(=O)O)cc2)nc1-c1ccc(F)cc1 [XO-TT572],4.12 nM,–,56.1%
